In this test the test system is PANC-1 cells. The test can be described thus: Cell Titer-Glo luminescent cell viability assay, in vitro compound screening against pancreatic cancer cell lines. It is filed as cell-based. Particulars: 24 and 48-hour post dosing; 10 nM, 100 nM, 1 μM, 10 μM, and 100 μM; n=4. As to the method:
In vitro compound screening against pancreatic cancer cell lines for IC50 determination. […] ASPC-1, BXPC-3, MIA-PaCa-2, and PANC-1 cell lines were obtained from ATCC. […] It should be noted that PANC-1, MIA-PaCa-2 and BxPC-3 cell-lines are gemcitabine-resistant cell-lines.
The IC50 was calculated using the following Log (inhibitor) versus Response equation: Y=Bottom+(Top−Bottom)/(1+10^((X-Log IC50))). Representative data and calculated IC50 values using the assay for representative compounds are shown FIGS. 4-7.

This passage reports inhibition of cell-proliferation results from patent US11667666B2, “Methods and compositions for treatment of cancer” (CFD Research Corporation, priority 2020, dated 2023).

In the case of glimepiride [Compound 8], the inhibition of cell-proliferation result is recorded as “did not show any appreciable inhibition of cell-proliferation”.

Turning to `CC1(C)O[C@@H]2C[C@H]3[C@@H]4CCC5=CC(=O)C=C[C@]5(C)[C@H]4[C@@H](O)C[C@]3(C)[C@]2(C(=O)CO)O1` [Compound 7, desonide], the inhibition of cell-proliferation entry is “did not show any appreciable inhibition of cell-proliferation”.

With bentiromide [Compound 5], the inhibition of cell-proliferation result is “did not show any appreciable inhibition of cell-proliferation”.
